{
  "source": "patent US20100047306A1",
  "about": "“PHARMACEUTICAL COMPOSITIONS COMPRISING BISPHOSPONATES” (NOVARTIS AG, priority 2006, published 2010)",
  "test_system": "Wistar rats",
  "experiment": "Tolerability study of calcium zoledronate microparticles in rats after s.c. administration (skin fold thickness)",
  "assay_type": "in vivo, rat",
  "conditions": "s.c. injection of suspension, 60 microgram, female Wistar rats",
  "procedure": "The microparticles of Examples 2 and 3 are suspended in a vehicle containing sodium carboxy methylcellulose, D-mannitol, Pluronics F68 and water for injection. 200 microliters of these suspensions were injected subcutaneously to the shaved skin at the left dorsal side of 8 weeks old female virgin Wistar rats (body weight approximately 220 g). In this way 1 mg dose (per animal) of zoledronic acid of the 15% calcium zoledronate microparticles (Example 3) and 2 mg dose (per animal) of zoledronic acid of the 10% calcium zoledronate microparticles (Example 2) were applied to a group of 6 animals per formulation. The thickness of the skin will be measured by a micro-caliper at the side of injection and the contra-lateral non-injected side. As reference a suspension of non-encapsulated drug substance is injected in a dose of 60 microgram. In addition, placebo microparticles made out of PLGA 75:25 (IV 0.68 dL/g) are also injected as control.",
  "data": [
    {"molecule": "O=P([O-])(O)C(O)(Cn1ccnc1)P(=O)([O-])O.[Ca+2]", "note": "[non-encapsulated drug substance, calcium zoledronate]", "values": [
      {"measurement": "swelling of the skin / local skin irritation", "value": "strong swelling of the skin"}
    ]}
  ]
}
